Data from ChEMBL document CHEMBL1201862, “PubChem BioAssay data set” (2004).
The source made the active and inactive calls.

Columns and labels:
fMet-Leu-Phe receptor = fMet-Leu-Phe receptor (Homo sapiens, UniProt P21462); experiment: FPR ligands, dose response (AID 519); type: functional
Genome polyprotein = Genome polyprotein (dengue virus type 2, UniProt P29990); experiment: Dengue-2 NS5 methyltransferase inhibitors, primary screen, biochemical, confirmation dose response (AID 588689); type: functional
[1] = target: T1, Probable nicotinate-nucleotide adenylyltransferase (Staphylococcus aureus (strain N315), UniProt P65502); type: functional, Staphylococcus aureus subsp. aureus N315; details: read-out: IC50_Mean;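 for IC50 Mean: confirmatory dose-response retesting of NadD inhibitor hits first found in an ultra-high-throughput screen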
Procathepsin L = Procathepsin L (Homo sapiens, UniProt P07711); experiment: cathepsin L inhibitors, dose response, counter-screen for M1/M17 aminopeptidase inhibitor project, biochemical, QFRET, 1536-well (AID 2214)
Leucine aminopeptidase = target: T2, Leucine aminopeptidase (Plasmodium falciparum 3D7, UniProt Q8IL11); experiment: P. falciparum M17LAP inhibitors, primary screen, biochemical, fluorogenic H-Leu-NHMec substrate, 1536-well (AID 1619); type: functional
T2 sequence (Q8IL11 whole entry): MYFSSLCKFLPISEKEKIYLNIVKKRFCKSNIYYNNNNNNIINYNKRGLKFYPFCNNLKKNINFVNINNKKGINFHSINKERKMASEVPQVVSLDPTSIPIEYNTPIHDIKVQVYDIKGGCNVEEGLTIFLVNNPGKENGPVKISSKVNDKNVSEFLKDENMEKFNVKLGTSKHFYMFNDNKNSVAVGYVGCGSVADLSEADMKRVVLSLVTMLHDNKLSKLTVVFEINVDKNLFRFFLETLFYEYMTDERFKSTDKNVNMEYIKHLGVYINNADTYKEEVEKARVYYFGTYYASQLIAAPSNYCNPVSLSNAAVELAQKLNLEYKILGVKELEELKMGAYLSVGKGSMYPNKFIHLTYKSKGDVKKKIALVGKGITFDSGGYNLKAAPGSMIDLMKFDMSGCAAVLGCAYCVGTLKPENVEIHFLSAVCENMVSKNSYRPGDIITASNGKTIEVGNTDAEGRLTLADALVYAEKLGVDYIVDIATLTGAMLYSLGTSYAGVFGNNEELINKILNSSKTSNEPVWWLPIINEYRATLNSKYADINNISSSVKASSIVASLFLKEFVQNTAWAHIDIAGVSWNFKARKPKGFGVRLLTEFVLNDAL

Aspartyl aminopeptidase = target: T3, Aspartyl aminopeptidase (Plasmodium falciparum 3D7, UniProt Q8I2J3); experiment: Counterscreen for inhibitors of M1 and M17 aminopeptidases: QFRET-based biochemical high throughput dose response assay for inhibitors of the Plasmodium falciparum M18 Aspartyl Aminopeptidase (PFM18AAP). [Related PubChem assays: 1619 (Screening assay (M17LAP inhibitors).), 1445 (Screening assay (M1AAP inhibitors).)]
T3 sequence (Q8I2J3 whole entry): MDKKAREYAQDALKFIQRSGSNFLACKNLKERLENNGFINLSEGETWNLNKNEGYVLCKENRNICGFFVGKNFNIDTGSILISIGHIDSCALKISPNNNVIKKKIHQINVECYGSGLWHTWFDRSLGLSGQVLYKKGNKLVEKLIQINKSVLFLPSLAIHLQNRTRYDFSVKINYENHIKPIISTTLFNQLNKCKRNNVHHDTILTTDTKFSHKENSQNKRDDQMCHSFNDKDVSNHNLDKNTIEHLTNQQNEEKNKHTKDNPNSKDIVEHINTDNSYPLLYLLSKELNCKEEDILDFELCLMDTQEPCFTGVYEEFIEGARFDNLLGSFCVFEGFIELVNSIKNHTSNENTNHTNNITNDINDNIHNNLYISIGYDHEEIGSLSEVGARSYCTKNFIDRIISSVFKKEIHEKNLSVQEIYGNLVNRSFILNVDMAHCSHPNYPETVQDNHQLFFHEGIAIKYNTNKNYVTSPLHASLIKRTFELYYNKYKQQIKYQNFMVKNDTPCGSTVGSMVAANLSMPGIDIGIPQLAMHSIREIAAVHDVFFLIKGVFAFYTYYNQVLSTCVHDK

[2] = target: T1, Probable nicotinate-nucleotide adenylyltransferase; type: functional, Staphylococcus aureus subsp. aureus N315
[3] = target: Long-chain-fatty-acid--AMP ligase FadD28 (Mycobacterium tuberculosis, UniProt P9WQ59); experiment: Fluorescence polarization aasay to screen for inhibitors that compete for the binding of FadD28 to a bisubstrate Measured in Biochemical System Using Plate Reader - 2147-01_Inhibitor_Dose_CherryPick_Activity.; type: functional, Mycobacterium tuberculosis H37Rv
cells [4] = type: functional, cell-based
[5] = target: T4, Trace amine-associated receptor 1 (Homo sapiens, UniProt Q96RJ0); experiment: Counterscreen for agonists of the human trace amine associated receptor 1 (hTAAR1): Fluorescence-based cell-based high throughput dose response assay to identify hTAAR1 agonist that also desensitize TAAR1 receptor response.; type: functional
[6] = target: T4, Trace amine-associated receptor 1; experiment: Fluorescence-based cell-based high throughput dose response assay to identify agonists of the human trace amine associated receptor 1 (TAAR1).; type: functional
cells [7] = type: functional, cell-based; remark: listed apart in the source
Beta-galactosidase = Beta-galactosidase (Escherichia coli, UniProt Q8VNN2); experiment: Dose response counterscreen for EBI2 assay utilizing the enzyme, b-galactosidase.; type: functional
[8] = Luminescence Cell-Based Dose Confirmation HTS to Identify Inhibitors of Platelet Dense Granule Release. [Related pubchem assays: 1663 (Primary HTS), 1678 (Summary of Project)]; type: functional
[9] = target: Luciferin 4-monooxygenase (Photinus pyralis, UniProt P08659); experiment: firefly luciferase enzyme inhibitors, dose response, biochemical, luminescence (AID 1891)
[10] = target: Fructose-bisphosphate aldolase (Mycobacterium tuberculosis, UniProt P9WQA3); experiment: Fluorescence-based biochemical high throughput dose response assay for inhibitors of the fructose-bisphosphate aldolase (FBA) of M. tuberculosis.; type: functional
Chain of Fructose-bisphosphate aldolase (P9WQA3 whole entry): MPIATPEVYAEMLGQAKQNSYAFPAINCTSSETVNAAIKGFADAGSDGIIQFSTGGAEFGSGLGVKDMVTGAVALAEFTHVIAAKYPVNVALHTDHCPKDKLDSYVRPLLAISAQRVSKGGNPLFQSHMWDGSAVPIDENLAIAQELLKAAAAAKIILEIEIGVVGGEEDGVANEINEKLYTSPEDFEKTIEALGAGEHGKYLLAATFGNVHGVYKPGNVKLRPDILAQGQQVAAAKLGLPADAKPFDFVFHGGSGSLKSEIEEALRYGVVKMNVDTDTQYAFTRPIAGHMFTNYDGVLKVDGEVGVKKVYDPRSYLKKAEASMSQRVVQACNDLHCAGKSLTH

T1 sequence (P65502 whole entry): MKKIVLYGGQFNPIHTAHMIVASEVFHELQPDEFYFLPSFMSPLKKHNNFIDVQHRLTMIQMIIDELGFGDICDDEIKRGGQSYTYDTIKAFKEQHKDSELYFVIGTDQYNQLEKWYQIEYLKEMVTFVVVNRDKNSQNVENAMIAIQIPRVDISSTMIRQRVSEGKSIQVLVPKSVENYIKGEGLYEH
T4 sequence (Q96RJ0 whole entry): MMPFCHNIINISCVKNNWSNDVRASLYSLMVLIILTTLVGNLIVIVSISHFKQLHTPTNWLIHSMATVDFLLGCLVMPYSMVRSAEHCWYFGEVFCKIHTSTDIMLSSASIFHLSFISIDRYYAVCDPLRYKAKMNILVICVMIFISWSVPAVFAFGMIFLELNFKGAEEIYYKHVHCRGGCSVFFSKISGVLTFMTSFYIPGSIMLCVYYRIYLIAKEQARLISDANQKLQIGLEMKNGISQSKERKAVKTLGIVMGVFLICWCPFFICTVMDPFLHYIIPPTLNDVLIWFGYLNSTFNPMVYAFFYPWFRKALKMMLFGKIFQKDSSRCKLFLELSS
Chain of Long-chain-fatty-acid--AMP ligase FadD28 (P9WQ59 whole entry): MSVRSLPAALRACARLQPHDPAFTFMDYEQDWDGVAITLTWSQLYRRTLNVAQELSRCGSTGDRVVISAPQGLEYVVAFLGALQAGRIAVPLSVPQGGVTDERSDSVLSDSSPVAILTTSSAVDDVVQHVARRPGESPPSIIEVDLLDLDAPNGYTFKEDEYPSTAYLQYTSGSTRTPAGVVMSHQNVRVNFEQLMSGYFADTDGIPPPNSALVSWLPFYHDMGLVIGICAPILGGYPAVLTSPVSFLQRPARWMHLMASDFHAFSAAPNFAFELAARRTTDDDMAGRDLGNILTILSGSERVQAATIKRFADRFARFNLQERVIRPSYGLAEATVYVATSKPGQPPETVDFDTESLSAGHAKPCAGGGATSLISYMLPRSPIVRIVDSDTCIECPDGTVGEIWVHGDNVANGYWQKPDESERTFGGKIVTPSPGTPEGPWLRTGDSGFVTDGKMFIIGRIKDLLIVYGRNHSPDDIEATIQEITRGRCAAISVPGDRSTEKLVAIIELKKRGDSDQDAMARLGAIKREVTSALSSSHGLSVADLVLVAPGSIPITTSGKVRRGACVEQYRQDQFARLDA
Chain of Beta-galactosidase (Q8VNN2 whole entry): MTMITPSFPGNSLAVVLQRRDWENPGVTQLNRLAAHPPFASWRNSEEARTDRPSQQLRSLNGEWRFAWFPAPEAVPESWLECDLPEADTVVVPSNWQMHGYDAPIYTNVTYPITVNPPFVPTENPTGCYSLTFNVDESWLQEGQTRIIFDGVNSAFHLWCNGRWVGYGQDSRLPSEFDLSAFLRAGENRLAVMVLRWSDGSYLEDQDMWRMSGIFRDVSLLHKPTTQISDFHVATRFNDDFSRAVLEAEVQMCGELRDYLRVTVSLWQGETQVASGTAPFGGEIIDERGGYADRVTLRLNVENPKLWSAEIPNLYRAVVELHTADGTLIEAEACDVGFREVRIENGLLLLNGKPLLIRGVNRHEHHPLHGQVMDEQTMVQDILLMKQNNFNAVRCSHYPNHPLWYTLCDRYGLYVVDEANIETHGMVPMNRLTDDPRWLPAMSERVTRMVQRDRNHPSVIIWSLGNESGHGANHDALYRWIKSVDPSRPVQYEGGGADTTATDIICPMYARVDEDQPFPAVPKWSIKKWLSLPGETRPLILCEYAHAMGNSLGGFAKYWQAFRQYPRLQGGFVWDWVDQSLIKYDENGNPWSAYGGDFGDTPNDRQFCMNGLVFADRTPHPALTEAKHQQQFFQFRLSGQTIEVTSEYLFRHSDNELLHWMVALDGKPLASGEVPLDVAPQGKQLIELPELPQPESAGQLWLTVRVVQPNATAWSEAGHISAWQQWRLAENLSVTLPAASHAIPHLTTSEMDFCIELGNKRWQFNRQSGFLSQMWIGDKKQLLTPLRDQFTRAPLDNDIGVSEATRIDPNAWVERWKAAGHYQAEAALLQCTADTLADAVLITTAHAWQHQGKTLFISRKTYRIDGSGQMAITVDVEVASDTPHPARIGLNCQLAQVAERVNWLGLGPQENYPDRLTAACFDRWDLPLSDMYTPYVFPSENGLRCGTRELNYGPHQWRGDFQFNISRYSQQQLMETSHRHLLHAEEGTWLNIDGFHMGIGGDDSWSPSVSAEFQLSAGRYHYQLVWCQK
Chain of Genome polyprotein (P29990 2492-3391 limits assumed): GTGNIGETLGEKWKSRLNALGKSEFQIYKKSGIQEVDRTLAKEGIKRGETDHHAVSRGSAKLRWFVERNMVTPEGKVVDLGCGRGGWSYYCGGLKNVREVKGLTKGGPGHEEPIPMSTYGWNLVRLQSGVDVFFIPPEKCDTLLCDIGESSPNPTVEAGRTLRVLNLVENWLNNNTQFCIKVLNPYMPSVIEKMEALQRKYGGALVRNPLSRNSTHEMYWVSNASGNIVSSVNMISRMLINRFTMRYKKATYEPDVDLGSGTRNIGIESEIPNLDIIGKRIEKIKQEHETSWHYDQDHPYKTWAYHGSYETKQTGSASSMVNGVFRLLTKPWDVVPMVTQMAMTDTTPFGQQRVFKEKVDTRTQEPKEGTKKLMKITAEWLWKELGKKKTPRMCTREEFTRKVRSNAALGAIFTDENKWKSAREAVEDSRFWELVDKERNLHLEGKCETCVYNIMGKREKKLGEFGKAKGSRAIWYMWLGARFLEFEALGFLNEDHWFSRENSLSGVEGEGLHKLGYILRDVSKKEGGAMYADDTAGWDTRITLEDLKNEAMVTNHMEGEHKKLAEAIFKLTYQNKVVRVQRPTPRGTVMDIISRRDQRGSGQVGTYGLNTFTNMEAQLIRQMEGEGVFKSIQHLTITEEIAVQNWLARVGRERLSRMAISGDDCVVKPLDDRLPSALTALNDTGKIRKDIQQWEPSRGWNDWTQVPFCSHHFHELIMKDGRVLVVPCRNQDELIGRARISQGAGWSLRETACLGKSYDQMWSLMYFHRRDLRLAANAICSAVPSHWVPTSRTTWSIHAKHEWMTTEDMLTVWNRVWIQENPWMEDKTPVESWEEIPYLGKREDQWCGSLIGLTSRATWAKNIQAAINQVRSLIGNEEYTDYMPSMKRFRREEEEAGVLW
Chain of fMet-Leu-Phe receptor (P21462 whole entry): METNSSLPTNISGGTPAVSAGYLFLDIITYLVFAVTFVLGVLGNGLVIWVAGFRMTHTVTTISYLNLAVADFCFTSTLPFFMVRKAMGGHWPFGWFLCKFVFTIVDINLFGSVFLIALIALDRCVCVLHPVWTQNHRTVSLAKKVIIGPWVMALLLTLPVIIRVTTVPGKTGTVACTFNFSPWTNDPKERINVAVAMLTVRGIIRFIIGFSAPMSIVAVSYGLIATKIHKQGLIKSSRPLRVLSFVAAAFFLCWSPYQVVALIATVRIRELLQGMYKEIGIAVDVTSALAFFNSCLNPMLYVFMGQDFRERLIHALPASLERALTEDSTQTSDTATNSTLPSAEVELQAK
Chain of Procathepsin L (P07711 whole entry): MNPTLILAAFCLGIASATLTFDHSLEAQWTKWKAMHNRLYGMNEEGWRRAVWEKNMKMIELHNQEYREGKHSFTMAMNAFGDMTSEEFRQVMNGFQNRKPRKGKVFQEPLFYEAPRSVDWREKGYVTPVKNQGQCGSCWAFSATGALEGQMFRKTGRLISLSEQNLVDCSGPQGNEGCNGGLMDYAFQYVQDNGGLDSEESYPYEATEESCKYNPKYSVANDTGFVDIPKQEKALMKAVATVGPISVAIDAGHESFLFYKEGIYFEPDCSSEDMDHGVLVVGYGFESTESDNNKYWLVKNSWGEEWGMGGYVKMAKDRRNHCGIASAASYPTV
Chain of Luciferin 4-monooxygenase (P08659 whole entry): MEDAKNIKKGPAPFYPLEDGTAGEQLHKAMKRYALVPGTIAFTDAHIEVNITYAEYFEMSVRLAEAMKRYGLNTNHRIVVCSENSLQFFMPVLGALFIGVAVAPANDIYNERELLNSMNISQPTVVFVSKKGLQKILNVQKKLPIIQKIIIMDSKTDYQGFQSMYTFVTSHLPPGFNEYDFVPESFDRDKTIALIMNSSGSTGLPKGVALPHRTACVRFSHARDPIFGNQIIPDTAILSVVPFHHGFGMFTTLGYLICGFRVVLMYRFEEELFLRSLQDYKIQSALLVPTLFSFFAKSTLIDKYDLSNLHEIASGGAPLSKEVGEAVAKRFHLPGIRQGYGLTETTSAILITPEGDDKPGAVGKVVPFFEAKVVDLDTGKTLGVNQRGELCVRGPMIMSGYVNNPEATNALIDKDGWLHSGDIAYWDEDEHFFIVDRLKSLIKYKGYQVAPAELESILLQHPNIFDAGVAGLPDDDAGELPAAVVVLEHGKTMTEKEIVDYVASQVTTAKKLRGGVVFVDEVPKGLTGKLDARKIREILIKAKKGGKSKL

CCOC(=O)c1c(-c2ccc(-c3ccccc3)cc2)csc1NC(=O)C1C2CCC(O2)C1C(=O)O (stereo unspecified)
Ki (fMet-Leu-Phe receptor): > 66.7 µM (inactive) | IC50 (Genome polyprotein): 29.6 µM (active) | IC50 [1]: 15.3 µM (active) | IC50 (Procathepsin L): > 59.6 µM (not active) | IC50 (Leucine aminopeptidase): 6.09 µM (active) | IC50 (Aspartyl aminopeptidase): 38.5 µM (not active) | IC50 [2]: 5.15 µM (active)

CCc1ccc(NC(=S)N(Cc2ccc(Cl)cc2)Cc2ccc(C(=O)O)cc2)cc1
AC50 [3]: > 100 µM (inactive)

CCOC(=O)C(NC(=O)CC)(N1CCc2ccccc2C1)C(F)(F)F (stereo unspecified)
EC50 (cells [4]): > 29.9 µM (inactive) | IC50 [5]: 1.03 µM (active) | EC50 [6]: 0.125 µM (active) | IC50 (cells [7]): > 29.9 µM (inactive)

CNC(=O)/C(C#N)=C/c1ccc(-c2nc3ccccc3s2)o1
IC50 (Beta-galactosidase): > 80 µM (inactive) | EC50 [8]: > 112 µM (not active) | EC50 [9]: > 112 µM (not active)

CCCn1c(-c2cc(OC)c(OC)c(OC)c2)nc2c1c(=O)[nH]c(=O)n2Cc1ccccc1
IC50 [10]: 1.32 µM (active)
